How the values were obtained:
rat hepatocyte HDAC = test: Fluor de Lys HDAC inhibition assay in crude rat hepatocyte lysates; assay type: biochemical; conditions: Fluor de Lys substrate, n = 3 or 4, read-out: Estimated IC50 values for tested compounds
Method: Screening of the HDAC inhibiting potencies of the above compounds was performed in crude rat hepatocyte lysates, prepared from freshly isolated cells, using the Fluor de Lys HDAC inhibition assay as detailed in example 9.
A two-step collagenase perfusion technique was used to isolate hepatocytes from male outbred Sprague-Dawley rats (200-300 g; Charles River Laboratories, Brussels, Belgium), which were kept under controlled environmental conditions (12 h light-dark cycle) and fed a standard diet (Animalabo A 04) with water ad libitum. Procedures for housing of the animals, and for isolation and cultivation of the rat hepatocytes were approved by the local ethical committee of the Vrije Universiteit Brussel (VUB, Brussels, Belgium).
Inhibition of HDAC activity was assessed in crude rat hepatocyte lysates by the Fluor de lys HDAC inhibition protocol as outlined herein:
HDAC Fluorescent Activity Assay/Drug Discovery Kit, Tebu-bio, AK-500.
• HDAC: thaw a rat hepatocyte cell extract (containing 6 mg/ml proteins) in tap water at room temperature, store on ice. • HDAC inhibitor:
Prepare a dilution series in assay buffer.
• Add 500 μl homogenisation buffer to 30×10^6 hepatocytes (pellets stored at −80° C.). • Ultrasonicate on ice 2×30 pulses • Let the homogenate(s) rest on ice during 5 min. • Transfer the homogenate(s) to 1.5 ml eppendorf tube(s) on ice, vortex vigorously. • Centrifugate at 14000 rpm in the microcentrifuge during 5 min at 4° C. • Determine the protein concentration (Bradford protein assay) of the supernatant, discard the pellets. • Dilute the extract(s) to a protein concentration of 6 mg/ml. Divide in aliquots of 500 μl (eppendorf tubes) and store for later use at −80° C.
1. bring 10 μl inhibitor/control solvents/assay buffer per well 2. add 15 μl cell extract to each well (for the blank: 15 μl boiled cell extract) 3. incubate 5 min at room temperature (cover plate with aluminium foil) 4. add 25 μl Fluor de Lys substrate to each well (40 μM solution, […]) 5. cover the plate with aluminium foil and incubate 15 min on orbital shaker 6. after 15 min, add 50 μl freshly prepared, ice-cold developer solution to each well 7. cover the plate with aluminium foil and incubate 15 min on orbital shaker 8. Measure the fluorescence in the plate reader
• Subtract the blank value (boiled extract) (background signal) • Calculate as % of ethanol control, that is set 100% • If the concentrations are spread around the 50% inhibition value, than the IC50 value can be calculated. […] (Note: the concentration should be set out as their logarithmic values)

primary rat hepatocytes [1] = test: Location of cell cycle arrest in primary rat hepatocytes from cell cycle marker expression; assay type: cell-based; conditions: 3 days incubation; absence of cyclin D1 and cdk1 protein expression, prior to the restriction point
Text: Assessed as in example 11a.
The effect of the different 6C-spacer compounds on the expression of key cell cycle proteins was investigated as well in order to identify the location of the cell cycle arrest.
Two cell cycle markers were studied as detailed in example 11a (see FIG. 8 for results): (a) cyclin D1, this protein is typically expressed when hepatocytes were able to pass the restriction point located in the mid-late G1 phase; and (b) cdk1, which is a marker for the S/G2/M phase (DNA synthesis takes place in the S phase).
Hepatocytes (0.4×10^5 cells/cm^2) were cultured in duplicate in a mixture of MEM/M199 (3:1; v/v) and stimulated to proliferate with EGF (50 ng/ml) 4 h after plating. Exposure to the indicated concentrations of HDACi started at time of plating and was maintained for 3 consecutive days: Cells were then harvested and analyzed for cyclin D1 and cdk1 expression levels (20 μg proteins/lane). Total ERK staining serves as a loading control.

primary rat hepatocytes [2] = test: Inhibition of DNA synthesis (3H-methylthymidine incorporation) in EGF-stimulated primary rat hepatocytes; assay type: cell-based; conditions: DNA synthesis at day 3 (72 h), EGF 50 ng/ml
Method: Results are expressed as percentage of positive control (untreated cells cultured in the presence of mitogen). Total inhibition of hepatocyte proliferation is considered when DNA synthesis of treated cells equals DNA synthesis level of negative control (untreated cells cultivated in the absence of mitogen). Results shown are the means±SD from 4 or more independent experiments.
Screening of the anti-proliferative activity of the above compounds (effect on DNA synthesis) was performed as in example 10a.
The maximal (100%) inhibition of rat primary hepatocyte proliferation has been achieved with following concentrations:
Dose-dependent inhibition of cell proliferation by Jung-type HDACi after 3 days of incubation. Hepatocytes (0.4×10^5 cells/cm^2) were cultured in duplicate in a mixture of MEM/M199 (3:1, v/v) and stimulated to proliferate with EGF (50 ng/ml) 4 h after plating. Exposure to the indicated concentrations of HDACi started at time of plating and was maintained for 3 consecutive days. ^3H-methylthymidine incorporation was measured at day 3 (72 h) of culture. Cells cultured in the absence of EGF serve as a negative control for hepatocyte proliferation (neg. contr.) whereas cells stimulated with EGF alone serve as a positive control for hepatocyte proliferation (pos. contr.). Results are expressed as the percentage of maximal incorporation observed in hepatocytes cultured in the presence of EGF alone. Values shown are the means±SD of duplicate cultures of 3 experiments.

HDAC = conditions: literature statement; cited from earlier work
HNF-1α = test: LETF immunofluorescence during hepatic differentiation of RLECs; assay type: cell-based, rat; conditions: TSA added to Sequential 3 differentiation protocol
Method: (§1) A: HNF-3b, B: HNF-4, C: HNF-1a, a: with DAPI counterstain, b: without DAPI counterstain.
(§2) • rinse cells 3× with PBS • fix nuclear and cytoplasmic proteins at room temperature for 10 min with 4% PFA (cold), connexins at −20° C. for 10 min with Ethanol/Aceton (50/50) and cytoskeletal proteins at −20° C. for 10 min with Ethanol. • wash 3×5 min with PBS • proceed with staining or store wells in PBS at 4° C. • check cells under microscope for autofluorescence and attachment • incubate 15 min with 100 mM glycin in PBS (used to saturate reactive groups generated after PFA fixation) • wash 3×5 min with PBS • incubate 15 min with PBST (permeabilization) • rinse 3× with PBS • block 45 min with block buffer at room temperature • incubate overnight at 4° C. with primary Ab diluted in PBS • rinse with PBS • wash 4×15 min with PBS • incubate with fluorescence-labeled secondary Ab 1 h 30 at room temperature (dilute Ab in PBS) • keep dark • wash 4×15 min with PBST • rinse with distilled water • mount with Vectashield with DAPI (use 3 drops per well)
(§3) For this experiment, the protocols of example 5 were used to differentiate RLECs towards the hepatic lineage with the exception of the sequential procedure. Sequential 3 from example 6 was used to differentiate the cells instead of the one stated in example 5. The immunofluorescence protocol-staining on cultured cells was used as stated in example 8.

HNF-4 = test: as above; assay type: cell-based, rat; conditions: TSA added to Sequential 3 differentiation protocol
Method: as §1, §2, §3

HNF-3β = test: as above; assay type: cell-based, rat; conditions: TSA added to Sequential 3 differentiation protocol
Method: as §1, §2, §3

RLEC = test: Morphology of RLEC differentiated in the presence of an HDAC inhibitor; assay type: cell-based, rat
Method: FIG. 15 illustrates morphology of RLEC differentiated in the presence of an HDAC inhibitor, as explained in example 13.
RLEC at 100% confluence are used for differentiation into hepatocyte-like cells: • after sub-cultivation, detach cells as described above and suspend all cells derived from 1 T75 and 1 T150 in 3 ml and 6 ml of new growth medium (37° C.), respectively. • homogenize the cell suspension by pipetting up and down. • add 420 μl growth medium to a 2 cm^2-well • transfer 80 μl of cell suspension to the middle of a 2 cm^2-well, precoated with 50-100 μg/ml collagen type I • tap to homogenize cell suspension; check cells under microscope • incubate cells at 37° C. in growth medium until cells have reached 100% confluence. • At 100% confluence, remove growth medium and expose cells to basal medium supplemented with liver specific factors, as follows: 1. days 0-1: 10 ng/ml FGF-4 2. days 1-3: 10 ng/ml FGF-4, 20 ng/ml HGF 3. days 3-6: 5 ng/ml FGF-4, 30 ng/ml HGF, 0.5×ITS 4. days 6-9: 30 ng/ml HGF, 0.25×ITS; 0.05 μM dexamethasone 5. days 9-12: 20 ng/ml HGF, 0.05 μM dexamethasone 6. days 12-15: 10 ng/ml HGF; 10 ng/ml OSM, 0.05 μM dexamethasone 7. From day 15 on: 10 ng/ml OSM, 0.05 μM dexamethasone
RLEC are differentiated without initial FGF-4 exposure, according to the following sequence:
1. days 0-3: 20 ng/ml HGF 2. days 3-6: 5 ng/ml FGF-4, 30 ng/ml HGF, 0.5×ITS 3. days 6-9: 30 ng/ml HGF, 0.25×ITS; 0.05 μM dexamethasone 4. days 9-12: 20 ng/ml HGF, 0.05 μM dexamethasone 5. days 12-15: 10 ng/ml HGF; 10 ng/ml OSM, 0.05 μM dexamethasone 6. From day 15 on: 10 ng/ml OSM, 0.05 μM dexamethasone
The results are illustrated in FIG. 15. […] The cells still have the characteristic RLEC shape. […] Optimisation of HDAC inhibitor concentration to reduce cell death is within the reach of a skilled person.

CYP1 A1 = test: Expression of CYP450 isoforms in rat primary hepatocytes; assay type: cell-based; conditions: 4 days exposure; expression lost in untreated controls
Method: (§4) Measured as in example 11b.
(§5) Furthermore, pro-differentiating effect of AN-6, AN-8 and AN-10 was examined as described in example 11b. Namely, the expression of phase I biotransformation markers, CYP 450 isoforms was examined. […] In comparison, the expression of latter proteins was lost in controls (untreated cells).
(§6) Hepatocytes (0.57×10^5 cells/cm^2) were cultured in Williams' E medium supplemented with insulin (0.5 μg/ml), glucagon (7 ng/ml) and hydrocortisone (25 μg/ml). Exposure to the indicated concentrations of HDACi started at time of plating and was maintained for 4 consecutive days. Cells were harvested at indicated time points and analyzed for CYP2 B1 and CYP1 A1 expression levels (40 μg proteins/lane).

[3] = test system: freshly isolated rat hepatocytes; conditions: incubated with freshly isolated rat hepatocytes, compared with TSA; cited from earlier work
CYP2 B1 = test: Expression of CYP450 isoforms in rat primary hepatocytes; assay type: cell-based; conditions: 4 days exposure; expression lost in untreated controls
Method: as §4, §5, §6

Row | SMILES | IC50 (rat hepatocyte HDAC) | Cell cycle arrest (primary rat hepatocytes [1]) | Concentration achieving maximal (100%) inhibition of rat primary hepatocyte proliferation (primary rat hepatocytes [2]) | other results
1 | O=C(CCCCCNC(=O)c1ccc(N2CCOCC2)cc1)NO [AN-16] | 1010 ± 310 nM |  |  | 
2 | O=C(CCCCCNC(=O)c1ccc(N2CCCC2)cc1)NO [AN-8] | 55 ± 19 nM | induced an early G1 cell cycle arrest | 7.5 µM | 
3 | CC(/C=C/C(=O)NO)=C\[C@@H](C)C(=O)c1ccc(N(C)C)cc1 [TSA, Trichostatin A] |  |  |  | HDAC inhibitory activity (HDAC): potent specific inhibitor of Class I and Class II HDAC in vitro and in vivo; HNF-1α expression and localisation (HNF-1α): induces expression of HNF-1α in nucleus already on D3; HNF-4 expression and activity (HNF-4): expressed and active from D3 onwards, either with or without addition of TSA; HNF-3β expression and localisation (HNF-3β): already expressed at D3 of the differentiation process and is located inside the nucleus; Morphology of differentiating RLEC (RLEC; 320 nM, D2, example 13 sequence): more polygonal shape; Morphology of differentiating RLEC (RLEC; 1 μM, D9, example 13 sequence): differentiate into binuclear, polygonal to cuboidal shaped cells; Cell death of differentiating RLEC (RLEC; 1 μM, example 13 sequence): causes some cell death; Morphology of differentiating RLEC (RLEC; protocol of example 5 with TSA addition): more fibroblast like shape
4 | O=C(CCCCCNC(=O)c1ccc(N2CCCCC2)cc1)NO [AN-15] | 500 ± 108 nM |  |  | 
5 | O=C(CCCCNC(=O)c1ccc(N2CCOCC2)cc1)NO [AN-14] | 4490 ± 1820 nM |  |  | 
6 | O=C(CCCCNC(=O)c1ccc(N2CCCCC2)cc1)NO [AN-13] | 2250 ± 616 nM |  |  | 
7 | O=C(CCCCCNC(=O)c1ccccc1)NO [AN-5] |  | able to induce a similar early G1 cell cycle arrest | 50 µM | 
8 | O=C(CCCCCNC(=O)c1cc2ccccc2[nH]1)NO [AN-10] | 14 ± 4 nM | induced an early G1 cell cycle arrest | 7.5 µM | CYP1 A1 expression during the entire culture period (CYP1 A1): remarkable ability to maintain
9 | CN(C)c1ccc(C(=O)NCCCCC(=O)NO)cc1 |  |  |  | HDAC inhibitory activity (HDAC): potent HDAC inhibitor; Metabolic stability [3]: metabolically more stable than TSA
10 | CN(C)c1ccc(C(=O)NCCCCC(=O)NO)cc1 [AN-1, 5-(4-dimethylaminobenzoyl)-aminovaleric acid hydroxamid] | 301 ± 28 nM |  | 50 µM | 
11 | O=C(CCCCNC(=O)c1cc2ccccc2[nH]1)NO [AN-9] | 313 ± 50 nM |  |  | 
12 | O=C(CCCCCNC(=O)c1ccc(Cl)cc1)NO [AN-7] | 84 ± 27 nM |  |  | 
13 | CN(C)c1ccc(C(=O)NCCCCCC(=O)NO)cc1 [AN-6, 6-(4-dimethylaminobenzoyl)-aminocaproic acid hydroxamid] | 24 ± 2 nM | induced an early G1 cell cycle arrest | 10 µM | CYP2 B1 expression during the entire culture period (CYP2 B1): remarkable ability to maintain
